Data reported in patent publication US11306092B2, “Amino indole compounds useful as TLR inhibitors” (BRISTOL-MYERS SQUIBB COMPANY, priority 2017, dated 2022).

Experiments:
Assay type in all cases: cell-based
human TLR7 = biological target: T1, human TLR7 (Homo sapiens, UniProt Q9NYK1); test: TLR7 inhibition reporter assay (HEK-Blue SEAP reporter); conditions: HEK-Blue cells overexpressing human TLR7; gardiquimod 7.5 μM; 22 hour incubation
T1 construct: host or cells: HEK-Blue cells
T1 sequence (Q9NYK1 27-1049): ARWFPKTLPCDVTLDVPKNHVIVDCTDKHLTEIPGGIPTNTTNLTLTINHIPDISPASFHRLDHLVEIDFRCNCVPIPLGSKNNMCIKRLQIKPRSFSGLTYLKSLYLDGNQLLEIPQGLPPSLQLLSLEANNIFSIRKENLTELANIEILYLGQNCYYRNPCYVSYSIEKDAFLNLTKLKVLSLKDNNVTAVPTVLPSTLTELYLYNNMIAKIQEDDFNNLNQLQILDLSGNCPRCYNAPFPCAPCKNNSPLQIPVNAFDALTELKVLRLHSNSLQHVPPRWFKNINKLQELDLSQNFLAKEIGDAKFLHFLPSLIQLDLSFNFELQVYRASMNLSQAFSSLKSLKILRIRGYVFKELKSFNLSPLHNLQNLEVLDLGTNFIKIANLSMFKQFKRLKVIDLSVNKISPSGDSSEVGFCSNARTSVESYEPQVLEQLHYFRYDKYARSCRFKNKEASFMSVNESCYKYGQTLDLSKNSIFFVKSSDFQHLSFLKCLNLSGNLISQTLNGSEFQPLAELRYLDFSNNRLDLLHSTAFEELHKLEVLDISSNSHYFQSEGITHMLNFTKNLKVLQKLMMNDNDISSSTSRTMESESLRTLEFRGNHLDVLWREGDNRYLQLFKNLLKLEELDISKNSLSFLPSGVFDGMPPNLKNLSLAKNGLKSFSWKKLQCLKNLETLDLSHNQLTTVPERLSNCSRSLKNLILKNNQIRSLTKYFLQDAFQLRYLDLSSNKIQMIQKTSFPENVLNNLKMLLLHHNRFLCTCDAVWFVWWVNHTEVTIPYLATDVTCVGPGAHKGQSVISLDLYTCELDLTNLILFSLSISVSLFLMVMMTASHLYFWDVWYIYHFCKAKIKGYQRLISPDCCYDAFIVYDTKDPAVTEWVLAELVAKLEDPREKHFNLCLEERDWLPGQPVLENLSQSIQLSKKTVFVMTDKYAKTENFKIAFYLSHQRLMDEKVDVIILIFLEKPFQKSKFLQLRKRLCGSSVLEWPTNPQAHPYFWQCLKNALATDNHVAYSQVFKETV
Summary of the method: (§1)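 Agonists used: gardiquimod 7.5 μM (TLR7), R848 15.9 μM (TLR8), ODN2006 5 nM (TLR9), added after 30 min room-temperature compound pre-treatment (0.05 nM–50 μM) of receptor-overexpressing HEK-Blue cells. SEAP reporter (NF-κB/AP-1 driven) read after 22 h at 37 °C; inhibition scaled between agonist+DMSO and reference-inhibitor wells.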

human TLR8 = biological target: T2, human TLR8 (Homo sapiens, UniProt Q9NR97); test: TLR8 inhibition reporter assay (HEK-Blue SEAP reporter); conditions: HEK-Blue cells overexpressing human TLR8; R848 15.9 μM; 22 hour incubation
T2 construct: host or cells: HEK-Blue cells
T2 sequence (Q9NR97 27-1041): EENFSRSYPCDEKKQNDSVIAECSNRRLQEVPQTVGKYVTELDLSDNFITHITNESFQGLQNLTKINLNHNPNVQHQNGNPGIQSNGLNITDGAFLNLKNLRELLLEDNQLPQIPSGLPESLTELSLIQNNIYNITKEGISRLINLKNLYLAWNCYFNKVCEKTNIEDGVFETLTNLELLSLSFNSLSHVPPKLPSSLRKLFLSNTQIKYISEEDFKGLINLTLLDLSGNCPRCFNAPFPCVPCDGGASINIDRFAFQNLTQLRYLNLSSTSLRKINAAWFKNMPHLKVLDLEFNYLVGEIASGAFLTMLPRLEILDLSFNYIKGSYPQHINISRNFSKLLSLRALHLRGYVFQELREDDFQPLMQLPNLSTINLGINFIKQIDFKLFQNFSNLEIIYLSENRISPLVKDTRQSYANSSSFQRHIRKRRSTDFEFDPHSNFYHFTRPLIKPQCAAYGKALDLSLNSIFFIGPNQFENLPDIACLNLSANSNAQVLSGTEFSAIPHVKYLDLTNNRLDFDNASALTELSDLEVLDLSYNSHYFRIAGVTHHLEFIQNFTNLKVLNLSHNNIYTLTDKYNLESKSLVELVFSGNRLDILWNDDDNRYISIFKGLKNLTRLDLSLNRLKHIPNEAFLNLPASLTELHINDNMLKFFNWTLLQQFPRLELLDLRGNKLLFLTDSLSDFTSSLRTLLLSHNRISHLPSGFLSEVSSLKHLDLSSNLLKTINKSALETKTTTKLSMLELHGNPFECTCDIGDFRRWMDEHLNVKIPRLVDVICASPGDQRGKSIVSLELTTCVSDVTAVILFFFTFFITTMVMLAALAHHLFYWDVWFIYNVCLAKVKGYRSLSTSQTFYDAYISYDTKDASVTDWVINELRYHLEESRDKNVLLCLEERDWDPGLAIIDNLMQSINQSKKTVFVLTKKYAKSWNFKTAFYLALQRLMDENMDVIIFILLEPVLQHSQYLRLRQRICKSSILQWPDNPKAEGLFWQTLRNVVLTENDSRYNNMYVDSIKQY
Summary of the method: as §1

human TLR9 = biological target: T3, human TLR9 (Homo sapiens, UniProt Q9NR96); test: TLR9 inhibition reporter assay (HEK-Blue SEAP reporter); conditions: HEK-Blue cells overexpressing human TLR9; ODN2006 5 nM; 22 hour incubation
T3 construct: host or cells: HEK-Blue cells
T3 sequence (Q9NR96 26-1032): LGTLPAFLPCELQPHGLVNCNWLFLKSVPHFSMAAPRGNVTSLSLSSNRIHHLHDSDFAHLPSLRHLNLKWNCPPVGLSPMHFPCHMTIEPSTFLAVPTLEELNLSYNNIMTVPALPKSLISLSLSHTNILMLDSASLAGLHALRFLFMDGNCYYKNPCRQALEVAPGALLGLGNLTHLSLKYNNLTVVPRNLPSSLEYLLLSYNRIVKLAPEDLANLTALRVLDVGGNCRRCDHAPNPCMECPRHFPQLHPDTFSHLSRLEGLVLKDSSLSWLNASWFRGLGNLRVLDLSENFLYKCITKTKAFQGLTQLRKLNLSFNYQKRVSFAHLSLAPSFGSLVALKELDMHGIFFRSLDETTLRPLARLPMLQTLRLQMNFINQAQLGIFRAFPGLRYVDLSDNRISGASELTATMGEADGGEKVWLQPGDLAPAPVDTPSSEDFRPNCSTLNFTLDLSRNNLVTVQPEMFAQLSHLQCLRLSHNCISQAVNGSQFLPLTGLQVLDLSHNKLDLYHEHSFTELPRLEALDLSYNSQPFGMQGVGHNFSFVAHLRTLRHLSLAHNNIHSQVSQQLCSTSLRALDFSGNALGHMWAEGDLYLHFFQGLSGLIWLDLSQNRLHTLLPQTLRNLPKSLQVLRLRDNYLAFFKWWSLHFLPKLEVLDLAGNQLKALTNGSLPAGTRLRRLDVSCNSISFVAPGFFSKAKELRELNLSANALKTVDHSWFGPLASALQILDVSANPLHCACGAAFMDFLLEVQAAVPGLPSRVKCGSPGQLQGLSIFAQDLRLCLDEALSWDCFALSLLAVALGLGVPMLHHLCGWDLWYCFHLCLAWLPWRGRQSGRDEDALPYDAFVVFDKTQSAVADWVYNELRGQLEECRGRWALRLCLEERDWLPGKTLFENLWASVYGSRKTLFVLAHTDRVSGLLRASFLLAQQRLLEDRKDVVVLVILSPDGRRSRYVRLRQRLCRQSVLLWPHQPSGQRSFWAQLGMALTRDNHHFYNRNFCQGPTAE
Summary of the method: as §1

Row | Structure (SMILES) | IC50 (human TLR7) | IC50 (human TLR8) | IC50 (human TLR9)
1 | CCc1c(-c2ccnc(OC)c2)[nH]c2ccc(N3CCN(C4CCN(CC(C)C)CC4)CC3)cc12 [Example 160, 3-ethyl-5-(4-(1-isobutylpiperidin-4-yl)piperazin-1-yl)-2-(2-methoxypyridin-4-yl)-1H-indole] | 106 nM | 14 nM | 470 nM
2 | COc1ccc(-c2[nH]c3ccc(N4CCN(C5CCN(C)CC5)CC4)cc3c2C(C)C)cc1OC [Example 162, 2-(3,4-dimethoxyphenyl)-3-isopropyl-5-(4-(1-methylpiperidin-4-yl)piperazin-1-yl)-1H-indole] | 30 nM | 7.9 nM | 935 nM
3 | CCc1c(-c2ccc(OC)c(OC)c2)[nH]c2ccc(N3CCN(C4CCN(CC)CC4)CC3)cc12 [Example 163, 2-(3,4-dimethoxyphenyl)-3-ethyl-5-(4-(1-ethylpiperidin-4-yl)piperazin-1-yl)-1H-indole] | 68 nM | 9.3 nM | 709 nM
4 | COc1ccc(-c2[nH]c3ccc(N4CCN(C5CCN(C(C)C)CC5)CC4)cc3c2C)cc1OC [Example 164, 2-(3,4-dimethoxyphenyl)-5-(4-(1-isopropylpiperidin-4-yl)piperazin-1-yl)-3-methyl-1H-indole] | 7090 nM | > 50000 nM | 577 nM
5 | CCc1c(-c2ccnc3c2ccn3C)[nH]c2ccc(N3CCN(C4CCN(C(C)C)CC4)CC3)cc12 [Example 165, 4-(3-ethyl-5-(4-(1-isopropylpiperidin-4-yl)piperazin-1-yl)-1H-indol-2-yl)-1-methyl-H-pyrrolo[2,3-b] pyridine] | 5900 nM | 9400 nM | 685 nM
6 | CC(C)c1c(-c2ccnc3[nH]ccc23)[nH]c2ccc(N3CCN(C4CCN(C(C)C)CC4)CC3)cc12 [Example 166, 4-(3-isopropyl-5-(4-(1-isopropylpiperidin-4-yl)piperazin-1-yl)-1H-indol-2-yl)-1H-pyrrolo[2,3-b]pyridine] | 6.2 nM | 0.05 nM | 318 nM
7 | COc1ccc(-c2[nH]c3ccc(N4CCN(C5CCN(CC(C)C)CC5)CC4)cc3c2C)cc1OC [Example 170, 2-(3,4-dimethoxyphenyl)-5-(4-(1-isobutylpiperidin-4-yl)piperazin-1-yl)-3-methyl-1H-indole] | 19100 nM | 48400 nM | 465 nM
8 | CCc1c(-c2ccc(OC)c(OC)c2)[nH]c2ccc(N3CCN(C4CC(C)(C)NC(C)(C)C4)CC3)cc12 [Example 176, 2-(3,4-dimethoxyphenyl)-3-ethyl-5-(4-(2,2,6,6-tetramethylpiperidin-4-yl)piperazin-1-yl)-1H-indole] | 68 nM | 28 nM | 866 nM

Second part, the molecule after the results:

Row | IC50 (human TLR7) | IC50 (human TLR8) | IC50 (human TLR9) | Structure (SMILES)
9 | 63 nM | 8.1 nM | 243 nM | CCc1c(-c2ccnc(OC)c2)[nH]c2ccc(N3CCN(C4CC(C)(C)NC(C)(C)C4)CC3)cc12 [Example 161, 3-ethyl-2-(2-methoxypyridin-4-yl)-5-(4-(2,2,6,6-tetramethylpiperidin-4-yl)piperazin-1-yl)-lH-indole]
10 | > 50000 nM | 48000 nM | 259 nM | CC(C)c1c(-c2ccnc3[nH]ncc23)[nH]c2ccc(N3CCN(C4CCN(C(C)C)CC4)CC3)cc12 [Example 168, 4-(3-isopropyl-5-(4-(1-isopropylpiperidin-4-yl)piperazin-1-yl)-1H-indol-2-yl)-1H-pyrazolo[3,4-b]pyridine]
11 | 61 nM | 10 nM | 442 nM | CCc1c(-c2ccc(OC)c(OC)c2)[nH]c2ccc(N3CCN(C4CCN(C(C)C)CC4)CC3)cc12 [Example 169, 2-(3,4-dimethoxyphenyl)-3-ethyl-5-(4-(1-isopropylpiperidin-4-yl)piperazin-1-yl)-1H-indole]
12 | 8990 nM | 32200 nM | 379 nM | COc1ccc(-c2[nH]c3ccc(N4CCN(C5CC(C)(C)NC(C)(C)C5)CC4)cc3c2C)cc1OC [Example 171, 2-(3,4-dimethoxyphenyl)-3-methyl-5-(4-(2,2,6,6-tetramethylpiperidin-4-yl)piperazin-1-yl)-1H-indole]
13 | 96 nM | 131 nM | 478 nM | CCc1c(-c2ccc(OC)c(OC)c2)[nH]c2ccc(N3CCN(C4CCN(C)CC4)CC3(C)C)cc12 [Example 172, 2-(3,4-dimethoxyphenyl)-5-(2,2-dimethyl-4-(1-methylpiperidin-4-yl)piperazin-1-yl)-3-ethyl-1H-indole]
14 | 59 nM | 9.8 nM | 673 nM | CCc1c(-c2cc(OC)nc(OC)c2)[nH]c2ccc(N3CCN(C4CCN(C(C)C)CC4)CC3)cc12 [Example 173, 2-(2,6-dimethoxypyridin-4-yl)-3-ethyl-5-(4-(1-isopropylpiperidin-4-yl)piperazin-1-yl)-1H-indole]
15 | 7.5 nM | 11 nM | 261 nM | Cc1cc2[nH]c(-c3ccnc4[nH]ncc34)c(C(C)C)c2cc1N1CCN(C2CCN(C(C)C)CC2)CC1 [Example 175, 4-(3-isopropyl-5-(4-(1-isopropylpiperidin-4-yl)piperazin-1-yl)-6-methyl-1H-indol-2-yl)-1H-pyrazolo[3,4-b]pyridine]
